Calls of active or inactive are those of the source. The rule behind the calls is not given here.
Legend:
MCF7 [1] = test: Induction of apoptosis in human MCF7 cells assessed as early apoptotic cells at 0.75 uM incubated for 48 hrs by Annexin-V/PI staining based flow cytometry analysis (reference value: 0.3%); assay type: functional
MCF7 [2] = test: Induction of apoptosis in human MCF7 cells assessed as late apoptotic cells at 3 uM incubated for 48 hrs by Annexin-V/PI FITC staining based flow cytometry analysis (reference value: 0.0%); assay type: functional
MCF7 [3] = test: Induction of cell cycle arrest in human MCF7 cells assessed as S phase cells at 0.75 uM incubated for 24 hrs by PI/RNaseA staining based flow cytometry analysis (reference value: 22.2 %); assay type: functional
MCF7 [4] = test: Antitumor activity against human MCF7 cells xenografted in BALB/c nude mouse assessed as reduction in tumor weight at 10 mg/kg, ip administered once every two days for 3 weeks relative to control; assay type: functional; set-up: scale not given: the % may be the effect or the level left
MCF7 [5] = test: Induction of apoptosis in human MCF7 cells assessed as early apoptotic cells at 1.5 uM incubated for 48 hrs by Annexin-V/PI staining based flow cytometry analysis (reference value: 0.3%); assay type: functional
MCF7 [6] = test: Antiproliferative activity against human MCF7 cells assessed as inhibition of cell growth incubated for 48 hrs by MTT assay; assay type: functional, cell-based; conditions: MCF7, 48 h
[7] = Toxicity in BALB/c mouse xenografted with human MCF7 cells assessed as spleen damage at 10 mg/kg, ip administered once every two days for 3 weeks by H and E staining based microscopic analysis; assay type: organism-based; conditions: in vivo, 504 h
MCF7 [8] = test: Induction of apoptosis in human MCF7 cells assessed as viable cells at 0.75 uM incubated for 48 hrs by Annexin-V/PI staining based flow cytometry analysis (reference value: 99.7%); assay type: functional; conditions: read-out: Activity
MCF7 [9] = test: Induction of apoptosis in human MCF7 cells assessed as late apoptotic cells at 1.5 uM incubated for 48 hrs by Annexin-V/PI staining based flow cytometry analysis (reference value: 0.0%); assay type: functional
MCF7 [10] = test: Induction of ROS generation in human MCF7 cells at 0.1 uM incubated for 24 hrs by DCFH-DA staining based fluorescent microscopic analysis; assay type: functional, cell-based
MCF7 [11] = test: Induction of apoptosis in human MCF7 cells assessed as upregulation of cleaved-PARP expression incubated for 24 hrs by Western blot analysis; assay type: functional, cell-based; conditions: dose 1-4 µM
MCF7 [12] = test: Induction of apoptosis in human MCF7 cells assessed as late apoptotic cells at 0.75 uM incubated for 48 hrs by Annexin-V/PI staining based flow cytometry analysis (reference value: 0.0%); assay type: functional
MCF7 [13] = test: Induction of cell cycle arrest in human MCF7 cells assessed as G1 phase cells at 0.75 uM incubated for 24 hrs by PI/RNaseA staining based flow cytometry analysis (reference value: 66.08 %); assay type: functional
MCF7 [14] = test: Antitumor activity against human MCF7 cells xenografted in BALB/c nude mouse assessed as reduction in tumor volume at 5 mg/kg, ip administered once every two days for 3 weeks; assay type: functional, organism-based
HCT-116 = test: Antiproliferative activity against human HCT-116 cells assessed as inhibition of cell growth incubated for 48 hrs by MTT assay; assay type: functional, cell-based; conditions: HCT-116, 48 h
[15] = Toxicity in BALB/c mouse xenografted with human MCF7 cells assessed as lung damage at 5 mg/kg, ip administered once every two days for 3 weeks by H and E staining based microscopic analysis; assay type: organism-based; conditions: in vivo, 504 h
[16] = Toxicity in BALB/c mouse xenografted with human MCF7 cells assessed as kidney damage at 10 mg/kg, ip administered once every two days for 3 weeks by H and E staining based microscopic analysis; assay type: organism-based; conditions: in vivo, 504 h
MCF7 [17] = test: Induction of apoptosis in human MCF7 cells assessed as upregulation of cleaved caspase-3 expression incubated for 24 hrs by Western blot analysis; assay type: functional, cell-based; conditions: dose 1-4 µM
MCF7 [18] = test: Induction of apoptosis in human MCF7 cells assessed as boundary consolidation upto 3 uM incubated for 48 hrs by Hoechst-33342 staining based fluorescent microscopic analysis; assay type: functional, cell-based
[19] = Toxicity in BALB/c mouse xenografted with human MCF7 cells assessed as kidney damage at 5 mg/kg, ip administered once every two days for 3 weeks by H and E staining based microscopic analysis; assay type: organism-based; conditions: in vivo, 504 h
MCF7 [20] = test: Induction of apoptosis in human MCF7 cells assessed as upregulation of Bax expression incubated for 24 hrs by Western blot analysis; assay type: functional, cell-based; conditions: dose 1-4 µM
MCF7 [21] = test: Induction of apoptosis in human MCF7 cells assessed as upregulation of Bad expression incubated for 24 hrs by Western blot analysis; assay type: functional, cell-based; conditions: dose 1-4 µM
MCF7 [22] = test: Induction of apoptosis in human MCF7 cells assessed as viable cells at 3 uM incubated for 48 hrs by Annexin-V/PI staining based flow cytometry analysis (reference value: 99.7%); assay type: functional; conditions: read-out: Activity
[23] = Toxicity in BALB/c mouse xenografted with human MCF7 cells assessed as liver damage at 5 mg/kg, ip administered once every two days for 3 weeks by H and E staining based microscopic analysis; assay type: organism-based; conditions: in vivo, 504 h
MCF7 [24] = test: Induction of apoptosis in human MCF7 cells assessed as downregulation of Bcl-2 expression incubated for 24 hrs by Western blot analysis; assay type: functional, cell-based; conditions: dose 1-4 µM

What does the source list for COc1cc(-c2cc(C(=O)OCCCCCOc3no[n+]([O-])c3S(=O)(=O)c3ccccc3)c3ccccc3n2)cc(OC)c1OC?
Activity (MCF7 [1]): 11.9%; Activity (MCF7 [2]): 50%; Activity (MCF7 [3]): 22.08%; Activity (MCF7 [4]): 66.79%; Activity (MCF7 [5]): 13.2%; IC50 (MCF7 [6]): 1450 nM; Activity [7]: Non-Toxic; viability at 0.75 µM (MCF7 [8]): 67.1%; Activity (MCF7 [9]): 18.1%; Activity (MCF7 [10]): Active; Activity (MCF7 [11]): Dose-Dependent Effect; Activity (MCF7 [12]): 18%; Activity (MCF7 [13]): 65.47%; Activity (MCF7 [14]): Active; IC50 (HCT-116): 2480 nM; Activity [15]: Non-Toxic; Activity [16]: Non-Toxic; Activity (MCF7 [17]): Dose-Dependent Effect; Activity (MCF7 [18]): Active; Activity [19]: Non-Toxic; Activity (MCF7 [20]): Dose-Dependent Effect; Activity (MCF7 [21]): Dose-Dependent Effect; viability at 3 µM (MCF7 [22]): 34.4%; Activity [23]: Non-Toxic; Activity (MCF7 [24]): Dose-Dependent Effect
